Measurements: ChEMBL document CHEMBL1150573, “Three new triterpenes from the seeds of Combretum quadrangulare and their hepatoprotective activity” (J Nat Prod, 2001)
Active and inactive are the calls of the source. No cut-off for these calls is given here.

Columns and labels:
[1] = system: Hepatocyte; assay: Hepatoprotective activity against D-galactosamine/TNFalpha-induced cell death in primary cultured mouse hepatocytes treated for 30 mins before TNFalpha challenge measured after 18 hrs by MTT assay; assay type: functional, cell-based
[2] = system: Hepatocyte; assay: Hepatoprotective activity against D-galactosamine/TNFalpha-induced cell death in primary cultured mouse hepatocytes at 100 uM treated for 30 mins before TNFalpha challenge measured after 18 hrs by MTT assay relative to control; assay type: functional
[3] = system: Hepatocyte; assay: Hepatoprotective activity against D-galactosamine/TNFalpha-induced cell death in primary cultured mouse hepatocytes at 50 uM treated for 30 mins before TNFalpha challenge measured after 18 hrs by MTT assay relative to control; assay type: functional
[4] = system: Hepatocyte; assay: Hepatoprotective activity against D-galactosamine/TNFalpha-induced cell death in primary cultured mouse hepatocytes assessed as cell viability at 25 uM treated for 30 mins before TNFalpha challenge measured after 18 hrs by MTT assay relative to normal hepatocytes; assay type: functional; settings: read-out: Activity
[5] = system: Hepatocyte; assay: Hepatoprotective activity against D-galactosamine/TNFalpha-induced cell death in primary cultured mouse hepatocytes at 25 uM treated for 30 mins before TNFalpha challenge measured after 18 hrs by MTT assay relative to control; assay type: functional
[6] = system: Hepatocyte; assay: Hepatoprotective activity against D-galactosamine/TNFalpha-induced cell death in primary cultured mouse hepatocytes assessed as cell viability at 50 uM treated for 30 mins before TNFalpha challenge measured after 18 hrs by MTT assay relative to normal hepatocytes; assay type: functional; settings: read-out: Activity
[7] = system: Hepatocyte; assay: Hepatoprotective activity against D-galactosamine/TNFalpha-induced cell death in primary cultured mouse hepatocytes assessed as cell viability at 100 uM treated for 30 mins before TNFalpha challenge measured after 18 hrs by MTT assay relative to normal hepatocytes; assay type: functional; settings: read-out: Activity

SMILES | Activity [1] | inhibition at 100 µM [2] [%] | inhibition at 50 µM [3] [%] | IC50 [1] [µM] | viability at 25 µM [4] [%] | inhibition at 25 µM [5] [%] | viability at 50 µM [6] [%] | viability at 100 µM [7] [%]
C=C(C)[C@@H]1CC[C@]2(C(=O)O[C@@H]3O[C@H](CO)[C@@H](O)[C@H](O)[C@H]3O)CC[C@]3(C)[C@H](CC[C@@H]4[C@@]5(C)C[C@@H](O)[C@H](O)C(C)(C)[C@@H]5[C@H](O)C[C@]43C)[C@@H]12 | Active |  |  |  |  |  |  | 
C[C@@H]1CC[C@]2(C(=O)O)CC[C@]3(C)C(=CC[C@@H]4[C@@]5(C)C[C@@H](O)[C@H](O)[C@@](C)(CO)[C@@H]5CC[C@]43C)[C@@H]2[C@]1(C)O | inactive |  |  |  |  |  |  | 
CC1(C)CC[C@]2(C(=O)O)CC[C@]3(C)C(=CC[C@@H]4[C@@]5(C)C[C@@H](O)[C@H](O)[C@@](C)(CO)[C@@H]5CC[C@]43C)[C@@H]2C1 [ARJUNOLIC ACID] |  | 108 | 33.8 | 58.4 | 24.9 | 19.1 | 28 | 43.6
CC1(C)CC[C@]2(C(=O)O)CC[C@]3(C)C(=CC[C@@H]4[C@@]5(C)C[C@@H](O)[C@H](O)C(C)(C)[C@@H]5[C@H](O)C[C@]43C)[C@@H]2[C@@H]1O |  | 24.4 | 18 |  | 24.2 | 15.4 | 24.7 | 26.1
COc1cc(C2Oc3cc([C@H]4Oc5cc(O)cc(O)c5C(=O)[C@@H]4O)ccc3OC2CO)ccc1O (stereo not given in full) [SILIBININ] |  | 129 | 68.2 | 29.9 | 30.2 | 44.9 | 35.1 | 47.9
CC1=C2C3=CC[C@@H]4[C@@]5(C)C[C@@H](O)[C@H](O)[C@@](C)(CO)[C@@H]5[C@H](O)C[C@@]4(C)[C@]3(C)CC[C@@]2(C(=O)O[C@@H]2O[C@H](CO)[C@@H](O)[C@H](O)[C@H]2O)CC[C@H]1C | Active |  |  |  |  |  |  | 
C[C@H]1[C@H](C)CC[C@]2(C(=O)O[C@@H]3O[C@H](CO)[C@@H](O)[C@H](O)[C@H]3O)CC[C@]3(C)C(=CC[C@@H]4[C@@]5(C)C[C@@H](O)[C@H](O)[C@@](C)(CO)[C@@H]5CC[C@]43C)[C@H]12 | inactive |  |  |  |  |  |  | 
C=C(C)[C@@H]1CC[C@]2(C(=O)O)CC[C@]3(C)[C@H](CC[C@@H]4[C@@]5(C)C[C@@H](O)[C@H](O)C(C)(C)[C@@H]5[C@H](O)C[C@]43C)[C@@H]12 |  | 128 | 35.8 | 60.9 | 22.2 | 5.9 | 28.4 | 47.6
CC1(C)[C@@H](O[C@H]2O[C@H](C(=O)O)[C@@H](O)[C@H](O)[C@H]2O[C@@H]2O[C@H](C(=O)O)[C@@H](O)[C@H](O)[C@H]2O)CC[C@]2(C)[C@H]3C(=O)C=C4[C@@H]5C[C@@](C)(C(=O)O)CC[C@]5(C)CC[C@@]4(C)[C@]3(C)CC[C@@H]12 [GLYCYRRHIZIN] |  |  |  | > 200 |  |  |  | 
C[C@@H]1CC[C@]2(C(=O)O[C@@H]3O[C@H](CO)[C@@H](O)[C@H](O)[C@H]3O)CC[C@]3(C)C(=CC[C@@H]4[C@@]5(C)C[C@@H](O)[C@H](O)[C@@](C)(CO)[C@@H]5CC[C@]43C)[C@@H]2[C@]1(C)O | inactive |  |  |  |  |  |  | 
C=C(C)[C@@H]1CC[C@]2(C(=O)O[C@@H]3O[C@H](CO)[C@@H](O)[C@H](O)[C@H]3O)CC[C@]3(C)[C@H](CC[C@@H]4[C@@]5(C)C[C@@H](O)[C@H](O)[C@@](C)(CO)[C@@H]5[C@H](O)C[C@]43C)[C@@H]12 | Active |  |  |  |  |  |  | 
CC1(C)CC[C@]2(C(=O)O)CC[C@]3(C)C(=CC[C@@H]4[C@@]5(C)C[C@@H](O)[C@H](O)C(C)(C)[C@@H]5CC[C@]43C)[C@@H]2[C@@H]1O [ARJUNIC ACID] |  | 32.9 | 27 |  | 26.5 | 26.7 | 26.6 | 27.8
CC1=C2C3=CC[C@@H]4[C@@]5(C)C[C@@H](O)[C@H](O)[C@@](C)(CO)[C@@H]5CC[C@@]4(C)[C@]3(C)CC[C@@]2(C(=O)O)CC[C@H]1C |  | 150 | 47.4 | 51 | 29.4 | 40.6 | 30.8 | 51.5
CC[C@H](CC[C@@H](C)[C@H]1CC[C@H]2[C@@H]3CC=C4C[C@@H](O)CC[C@]4(C)[C@H]3CC[C@]12C)C(C)C [BETA-SITOSTEROL] |  | 32.5 | 28.1 |  | 24.3 | 17.7 | 26.4 | 27.3
C=C(C)[C@@H]1CC[C@]2(C(=O)O)CC[C@]3(C)[C@H](CC[C@@H]4[C@@]5(C)C[C@@H](O)[C@H](O)[C@@](C)(CO)[C@@H]5[C@H](O)C[C@]43C)[C@@H]12 |  | 71.7 | 46.2 | 51.2 | 28.6 | 36.4 | 30.6 | 36
